Experimental data from patent publication US20090234097A1, “VASODILATOR” (CALPIS CO., LTD., priority 2006, published 2009).

System: thoracic aorta ring of a Wistar rat
Experiment: Vasodilating test on phenylephrine-preconstricted aorta ring (Magnus apparatus)
Settings: at 10 mM (printed 10 mm); aorta ring preconstricted with 1 μM phenylephrine
Experimental: The thoracic aorta of a Wistar rat was taken out, cut into 2 mm long, and made into an aorta ring. The ring was set in a Magnus apparatus (product name “micro tissue organ bath MTB-1Z”, manufactured by LABO SUPPORT CO., LTD.), and allowed to equilibrate with a constant tension. The constriction response of the aorta ring was confirmed with 50 mM KCl.
Next, the aorta ring was preliminarily constricted with 1 μM phenylephrine, and VPP and IPP prepared in Synthesis Example were added at ten-fold increasing concentrations from 10^−9 M to observe the vasodilator response through the change in tension of the aorta ring. The dose dependency of the vasodilator response was also studied.
The vasodilating test was conducted in the same way as in Example 1, except that the tripeptides VPP and IPP were replaced with amino acids, valine (Val) and proline (Pro), at the same concentration.

SMILES | vasodilator response (change in tension of the aorta ring)
O=C(O)[C@@H]1CCCN1 [Pro, proline] | no vasodilator response was observed
CC(C)[C@H](N)C(=O)O [Val, valine] | no vasodilator response was observed
